Laboratory results as given in patent US20020162794A1, “Anaerobic digestion” (priority 2001, published 2002).
Several values for one entry are separate records, joined by “and”; a condition that tells them apart may be missing. Equal entries are not always repeated.

System: mixed culture from a publicly owned anaerobic digester (domestic sewage sludge)
Assay: Chemical Oxygen Demand (COD) of batch anaerobic digester reactors
Method: Two tests were run in which sodium formate in concentrations ranging from a few parts per million (ppm) up to ten percent (10%) on a mass basis were added to samples taken from a publicly owned anaerobic digester. The samples were first cultured in laboratory sized batch reactors. The twelve batch reactors were then sampled, and studied for periods of up to fifty-five days. The process variables that were monitored included COD (Chemical Oxygen Demand), TS (Total Solids), TVS (Total Volatile Solids) and the pH of the culture. Time and the initial sodium formate concentration level were the independent variables. Finally measurements were also made of the bacterial counts at the beginning and at the end of the fifty five day period. These experimental observations permitted partial identifications of the predominant bacterial colonies still viable in each of the twelve reactors used for each trial of the laboratory study.
Chemical Oxygen Demand (COD) measurements
To perform this measurement, a 5 ml of the sample from each of the 12 reactors is taken and diluted 10-fold to 50 ml. 5 ml of the now diluted sample is again diluted 10 fold to 50 ml. This double dilution represents a 100-fold dilution of the original sample. 2 ml of these diluted samples are put into standard COD test tubes. The test tubes are closed and shaken vigorously. The 13 (COD) test tubes (one is a control) are then heated to 150 deg. C for two hours. The UV spectrometer is calibrated by first analyzing the test tube with pure distilled water as the zero COD or control sample.
The sample test tubes are then analyzed for COD using UV spectrometer after inputting the method number and adjusting the frequency of UV rays to correspond to a sample with a high organic loading range. The readings that were obtained in units of mg/liter are multiplied by 100 to correct for the dilution procedure and to get COD concentration level for the original sample. COD is indicative of the organic substrate load level in the wastewater being treated or tested.
Municipal sludge from the city of Lubbock, Wastewater Treatment Plant was digested in 12 batch digesters. Using twelve batch reactors allowed the collection of control reactors data (i.e., no formate in the reactors) in triplicate, titration studies of increasing formate concentration, and duplicates/triplicates of varying formate concentration. Experiments were conducted in the laboratories of Texas Tech University.
The substrate taken was 2 parts of 50 g/liter sucrose solution mixed with 1 part of digested municipal sludge which acts as the seed material for incorporation of microbes into the reactors. The experiments were started with the following protocol. [drawing 1]

O=C[O-].[Na+] [sodium formate]
COD Concentration (1/4/99 run, 100 ppm, 0 Day): 29.5 g/L
COD Concentration (1/4/99 run, 100 ppm, 15 days): 43.8 g/L
COD Concentration (1/4/99 run, 100 ppm, 30 days): 39.1 g/L
COD Concentration (1/4/99 run, 1250 ppm, 0 Day): 40.3 g/L
COD Concentration (1/4/99 run, 1250 ppm, 15 days): 42.7 g/L
COD Concentration (1/4/99 run, 1250 ppm, 30 days): 32 g/L
COD Concentration (1/4/99 run, 2500 ppm, 0 Day): 17.1 g/L
COD Concentration (1/4/99 run, 2500 ppm, 15 days): 41.4 g/L
COD Concentration (1/4/99 run, 2500 ppm, 30 days): 38.9 g/L
COD Concentration (1/4/99 run, 3750 ppm, 0 Day): 38 g/L
COD Concentration (1/4/99 run, 3750 ppm, 15 days): 40.7 g/L
COD Concentration (1/4/99 run, 3750 ppm, 30 days): 47.8 g/L
COD Concentration (1/4/99 run, 5000 ppm, 0 Day): 37.5 g/L
COD Concentration (1/4/99 run, 5000 ppm, 15 days): 43.1 g/L
COD Concentration (1/4/99 run, 5000 ppm, 30 days): 46.6 g/L
COD Concentration (1/4/99 run, 6250 ppm, 0 Day): 34.3 g/L
COD Concentration (1/4/99 run, 6250 ppm, 15 days): 44.1 g/L
COD Concentration (1/4/99 run, 6250 ppm, 30 days): 38.1 g/L
COD Concentration (1/4/99 run, 7500 ppm, 0 Day): 36.7 g/L
COD Concentration (1/4/99 run, 7500 ppm, 15 days): 33 g/L
COD Concentration (1/4/99 run, 7500 ppm, 30 days): 55.8 g/L
COD Concentration (1/4/99 run, 8750 ppm, 0 Day): 24.9 g/L
COD Concentration (1/4/99 run, 8750 ppm, 15 days): 26.1 g/L
COD Concentration (1/4/99 run, 8750 ppm, 30 days): 53.8 g/L
COD Concentration (1/4/99 run, 10000 ppm, 0 Day): 33.8 g/L
COD Concentration (1/4/99 run, 10000 ppm, 15 days): 36.1 g/L
COD Concentration (1/4/99 run, 10000 ppm, 30 days): 45.5 g/L
COD Concentration, Average (1/4/99 run, average 25 ppm (reactors 0, 0, 0, 100 ppm), 0 Day): 37.825 g/L
COD Concentration, Average (1/4/99 run, average 25 ppm (reactors 0, 0, 0, 100 ppm), 15 days): 51.23 g/L
COD Concentration, Average (1/4/99 run, average 25 ppm (reactors 0, 0, 0, 100 ppm), 30 days): 39.125 g/L
COD Concentration, Average (1/4/99 run, average 2500 ppm (1250, 2500, 3750 ppm), 0 Day): 31.8 g/L
COD Concentration, Average (1/4/99 run, average 2500 ppm (1250, 2500, 3750 ppm), 15 days): 41.6 g/L
COD Concentration, Average (1/4/99 run, average 2500 ppm (1250, 2500, 3750 ppm), 30 days): 39.57 g/L
COD Concentration, Average (1/4/99 run, average 6250 ppm (5000, 6250, 7500 ppm), 0 Day): 36.17 g/L
COD Concentration, Average (1/4/99 run, average 6250 ppm (5000, 6250, 7500 ppm), 15 days): 40.07 g/L
COD Concentration, Average (1/4/99 run, average 6250 ppm (5000, 6250, 7500 ppm), 30 days): 46.83 g/L
COD Concentration, Average (1/4/99 run, average 8750 ppm (7500, 8750, 10000 ppm), 0 Day): 31.8 g/L
COD Concentration, Average (1/4/99 run, average 8750 ppm (7500, 8750, 10000 ppm), 15 days): 31.73 g/L
COD Concentration, Average (1/4/99 run, average 8750 ppm (7500, 8750, 10000 ppm), 30 days): 51.7 g/L
COD Concentration (7/1/99 run (Tables 5, 6), 1000 ppm, 0 Day (with formate addition)): 52 g/L and 60.8 g/L and 48.6 g/L
COD Concentration (7/1/99 run (Tables 5, 6), 1000 ppm, 7 Day): 65.8 g/L and 68.2 g/L and 50.3 g/L
COD Concentration (7/1/99 run (Tables 5, 6), 1000 ppm, 1 days, listed as Format): 51.5 g/L and 60.3 g/L and 57.2 g/L
COD Concentration (7/1/99 run (Tables 5, 6), 1000 ppm, 1 days, listed as Formate): 57.2 g/L
COD Concentration (7/1/99 run (Tables 5, 6), 1000 ppm, 4 days): 52 g/L and 51.4 g/L and 52.3 g/L
COD Concentration (7/1/99 run (Tables 5, 6), 1000 ppm, 9 days): 54.9 g/L and 48.5 g/L and 47.7 g/L
COD Concentration (7/1/99 run (Tables 5, 6), 1000 ppm, 16 days): 33.1 g/L and 41.4 g/L and 33.6 g/L
COD Concentration (7/1/99 run (Tables 5, 6), 1000 ppm, 55 days): 34 g/L and 46.6 g/L and 38 g/L
COD Concentration (7/1/99 run (Tables 5, 6), 5000 ppm, 0 Day (with formate addition)): 60.3 g/L
COD Concentration (7/1/99 run (Tables 5, 6), 5000 ppm, 7 Day): 52.2 g/L
COD Concentration (7/1/99 run (Tables 5, 6), 5000 ppm, 1 days): 46.8 g/L and 48.8 g/L
COD Concentration (7/1/99 run (Tables 5, 6), 5000 ppm, 4 days): 48.9 g/L
COD Concentration (7/1/99 run (Tables 5, 6), 5000 ppm, 9 days): 44.2 g/L
COD Concentration (7/1/99 run (Tables 5, 6), 5000 ppm, 16 days): 30.4 g/L
COD Concentration (7/1/99 run (Tables 5, 6), 5000 ppm, 24 days): 30.9 g/L
